The text below walks through data of US20090069565A1, “NEW INDOLE DERIVATIVES AS FACTOR XA INHIBITORS” (priority 2001, published 2009).

The first assay deals with human factor Xa (Homo sapiens, UniProt P00742). Put plainly: Factor Xa assay (chromogenic, substrate S-2765).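 Further: purified enzyme preincubated with inhibitor for 10 min before substrate addition, final reaction volume 100 µl.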 It counts as biochemical. To be noted: inhibition constant for factor Xa; purified enzyme 0.5 nM, substrate S-2765 140 μM, 25° C., pH 7.8; Ki=IC50/{1+(substrate concentration/Km)}; read-out: Ki(FXa).
Sequence of human factor Xa (P00742 235-488 limits assumed): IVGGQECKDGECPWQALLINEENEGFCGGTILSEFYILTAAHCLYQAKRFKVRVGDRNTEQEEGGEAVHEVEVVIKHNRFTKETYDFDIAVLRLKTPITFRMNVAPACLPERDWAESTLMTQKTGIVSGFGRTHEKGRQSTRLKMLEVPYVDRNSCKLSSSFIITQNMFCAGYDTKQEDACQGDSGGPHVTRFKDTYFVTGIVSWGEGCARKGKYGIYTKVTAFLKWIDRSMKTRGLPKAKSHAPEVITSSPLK
Sequence of human factor Xa (P00742 41-179 partner limits assumed): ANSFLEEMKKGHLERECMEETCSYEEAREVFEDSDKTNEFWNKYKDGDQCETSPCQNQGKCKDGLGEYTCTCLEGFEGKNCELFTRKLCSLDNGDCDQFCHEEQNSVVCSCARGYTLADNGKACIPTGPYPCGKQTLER
A word on the Ki: it is the dissociation constant of the complex between target and ligand, obtained from inhibition or displacement. For the compound `O=C(NC1CCN(CCO)CC1)c1cc2ccccc2n1Cc1cc(-c2ccc(Cl)s2)on1` [Example 260, 1-[5-(5-chloro-thiophen-2-yl)-isoxazol-3-ylmethyl]-1H-indole-2-carboxylic acid [1-(2-hydroxy-ethyl)-piperidin-4-yl]-amide], the Ki was 131 nM.

The same assay, now with this note: read-out: Ki(FXa).
Take `N#CCN1CCC(NC(=O)c2cc3ccccc3n2Cc2cc(-c3ccc(Cl)s3)on2)CC1` [Example 259, 1-[5-(5-chloro-thiophen-2-yl)-isoxazol-3-ylmethyl]-1H-indole-2-carboxylic acid (1-cyanomethyl-piperidin-4-yl)-amide]: the inhibition constant Ki amounted to 772 nM.

On to `COCCN1CCC(NC(=O)c2cc3ccccc3n2Cc2cc(-c3ccc(Cl)s3)on2)CC1` [Example 261, 1-[5-(5-chloro-thiophen-2-yl)-isoxazol-3-ylmethyl]-1H-indole-2-carboxylic acid [1-(2-methoxy-ethyl)-piperidin-4-yl]-amide], for which the Ki was 139 nM.

As for `NC(=O)CN1CCC(NC(=O)c2cc3ccccc3n2Cc2cc(-c3ccc(Cl)s3)on2)CC1` [Example 262, 1-[5-(5-chloro-thiophen-2-yl)-isoxazol-3-ylmethyl]-1H-indole-2-carboxylic acid (1-carbamoylmethyl-piperidin-4-yl)-amide], the Ki is 250 nM.

`CNC(=O)CN1CCC(NC(=O)c2cc3ccccc3n2Cc2cc(-c3ccc(Cl)s3)on2)CC1` [Example 263, 1-[5-(5-chloro-thiophen-2-yl)-isoxazol-3-ylmethyl]-1H-indole-2-carboxylic acid (1-methylcarbamoylmethyl-piperidin-4-yl)-amide]: the Ki stood at 580 nM.

Consider `O=C(NC1CCN(Cc2ncc[nH]2)CC1)c1cc2ccccc2n1Cc1cc(-c2ccc(Cl)s2)on1` [Example 264, 1-[5-(5-chloro-thiophen-2-yl)-isoxazol-3-ylmethyl]-1H-indole-2-carboxylic acid [1-(1H-imidazol-2-ylmethyl)-piperidin-4-yl]-amide], for which the inhibitory constant (Ki) turned out to be 559 nM.

Take `Cn1ccnc1CN1CCC(NC(=O)c2cc3ccccc3n2Cc2cc(-c3ccc(Cl)s3)on2)CC1` [Example 265, 1-[5-(5-chloro-thiophen-2-yl)-isoxazol-3-ylmethyl]-1H-indole-2-carboxylic acid [1-(1-methyl-1H-imidazol-2-ylmethyl)-piperidin-4-yl]-amide]: the Ki is 404 nM.

On to `NCC(=O)N1CCC(NC(=O)c2cc3ccccc3n2Cc2cc(-c3ccc(Cl)s3)on2)CC1` [Example 267, 1-[5-(5-chloro-thiophen-2-yl)-isoxazol-3-ylmethyl]-1H-indole-2-carboxylic acid [1-(2-amino-acetyl)-piperidin-4-yl]-amide], for which the Ki was found to be 891 nM.

With `CCOC(=O)OC(C)OC(=O)c1ccc2c(c1)cc(C(=O)NC1CCN(C(C)C)CC1)n2Cc1cc(-c2ccc(Cl)s2)on1` (stereo not shown) [Example 268, 1-[5-(5-Chloro-thiophen-2-yl)-isoxazol-3-ylmethyl]-2-(1-isopropyl-piperidin-4-ylcarbamoyl)-1H-indole-5-carboxylic acid 1-ethoxycarbonyloxy-ethyl ester], the Ki was found to be 42 nM.

With `CCOC(=O)OC(C)OC(=O)c1cccc2c1cc(C(=O)NC1CCN(C(C)C)CC1)n2Cc1cc(-c2ccc(Cl)s2)on1` (stereo not shown) [Example 269, 1-[5-(5-Chloro-thiophen-2-yl)-isoxazol-3-ylmethyl]-2-(1-isopropyl-piperidin-4-ylcarbamoyl)-1H-indole-4-carboxylic acid 1-ethoxycarbonyloxy-ethyl ester], the Ki is 7 nM.

Turning to `CC(C)N1CCC(NC(=O)c2cc3c(C(=O)OCOC(=O)C(C)(C)C)cccc3n2Cc2cc(-c3ccc(Cl)s3)on2)CC1` [Example 270, 1-[5-(5-Chloro-thiophen-2-yl)-isoxazol-3-ylmethyl]-2-(1-isopropyl-piperidin-4-ylcarbamoyl)-1H-indole-4-carboxylic acid 2,2-dimethyl-propionyloxymethyl ester], the inhibition constant Ki was found to be 13 nM.

In the case of `CC(OC(=O)c1ccc2c(c1)cc(C(=O)NC1CCN(C(C)C)CC1)n2Cc1cc(-c2ccc(Cl)s2)on1)OC(=O)C(C)(C)C` (stereo not shown) [Example 271, 1-[5-(5-Chloro-thiophen-2-yl)-isoxazol-3-ylmethyl]-2-(1-isopropyl-piperidin-4-ylcarbamoyl)-1H-indole-5-carboxylic acid 1-(2,2-dimethyl-propionyloxy)-ethyl ester], the Ki turned out to be 92 nM.

For `CC(OC(=O)c1cccc2c1cc(C(=O)NC1CCN(C(C)C)CC1)n2Cc1cc(-c2ccc(Cl)s2)on1)OC(=O)C(C)(C)C` (stereo not shown) [Example 272, 1-[5-(5-Chloro-thiophen-2-yl)-isoxazol-3-ylmethyl]-2-(1-isopropyl-piperidin-4-ylcarbamoyl)-1H-indole-4-carboxylic acid 1-(2,2-dimethyl-propionyloxy)-ethyl ester], the Ki is 17 nM.
